Among the data in PMC4974565, “Rapid construction of metabolite biosensors using domain-insertion profiling” (Nature Communications, 2016) are Kd values, retold here.

In this assay the target is T1, Tre-C04 (TMBP-cpGFP biosensor; T. litoralis D-trehalose/D-maltose-binding protein) (Thermococcus litoralis, UniProt Q7LYW7).
T1 construct: gene malE; residues 46-450 of TMBP fused to five N-terminal residues of mature E. coli MBP, codon-optimised; expressed in E. coli Tuner, Ni-NTA purified
As to the kind of experiment: cpGFP fluorescence dose-response, purified biosensor, four-parameter fit. Conditions: 500 nM protein; PBS; 0-50 μM sugar; Ex 485 / Em 515 nm.

T1 sequence (Q7LYW7 374-450): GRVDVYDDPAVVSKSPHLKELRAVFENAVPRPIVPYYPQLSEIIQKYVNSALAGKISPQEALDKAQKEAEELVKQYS
T1 sequence (Q7LYW7 46-373): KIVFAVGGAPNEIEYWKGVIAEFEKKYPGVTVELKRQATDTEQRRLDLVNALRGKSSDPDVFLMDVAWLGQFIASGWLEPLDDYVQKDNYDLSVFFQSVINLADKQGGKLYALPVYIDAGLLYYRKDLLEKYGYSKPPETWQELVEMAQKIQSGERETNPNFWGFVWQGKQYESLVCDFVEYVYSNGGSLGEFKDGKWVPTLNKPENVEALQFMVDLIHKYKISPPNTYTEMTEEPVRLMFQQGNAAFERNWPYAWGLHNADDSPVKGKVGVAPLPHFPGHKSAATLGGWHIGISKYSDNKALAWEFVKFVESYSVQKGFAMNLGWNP

For the molecule `OC[C@H]1O[C@H](O[C@H]2O[C@H](CO)[C@@H](O)[C@H](O)[C@H]2O)[C@H](O)[C@@H](O)[C@@H]1O` [trehalose], the affinity, expressed as Kd, was 53 ± 1 nM. `OC[C@H]1O[C@H](O[C@H]2[C@H](O)[C@@H](O)C(O)O[C@@H]2CO)[C@H](O)[C@@H](O)[C@@H]1O` (some centres unmarked) [maltose] yielded a Kd of 81 ± 1 nM.
